Data reported in a melting point compilation (Tetko et al.; mined from patent text by program, amines drawn as free bases though some values may be those of a salt).

melting point [°C] | SMILES
105 to 107 | Cn1nc2ccccc2c1C(=O)NCCN1CCC(c2ccc(F)cc2)CC1
166 to 168 | COc1ccc(S(N)(=O)=O)c(-c2cccc3c2Nc2ccc(F)cc2S3)c1
214 to 215 | CN1CCN(C(=O)Oc2ccccc2)C1=C(C(=O)Oc1ccccc1)[N+](=O)[O-]
146 to 149 | CC(C)CC(SC1CCCC1)c1c(O)cc(-c2ccccc2)oc1=O (centres undefined)
192 to 194 | CC(C)CN1CC(O)C(O)C(O)C1CO (centres undefined)
109 to 110 | COc1c2c(cc3c1OCO3)C(OC(C)=O)CN(C)C2 (centres undefined)
91 to 94 | CCCCSc1nc(N)c(C(=O)c2ccccc2)s1
118 to 123 | CC(=O)Nc1ccc2c(c1)NCC(CN(C)C)C2 (centres undefined)
189 | CN1CCC(N(CCCC2CCCO2)S(=O)(=O)c2ccc(Nc3nccc(Nc4ccc(F)cc4)n3)cc2)CC1 (centres undefined)
253 to 255 | N#CNC(=S)Nc1ccccc1Cl
118 to 123 | CCCCCCCCCCCCCCCCCCOC[C@@H]1CO[C@@H](COC(=O)Nc2ccncc2)C1 (relative stereo)
170 to 190 | COc1cc(CCCN(C)Cc2ccc(OC)c(OC)c2)ccc1NC(=O)c1cccc2c(=O)c3cccc(F)c3[nH]c12
125 to 127 | CC(=O)Oc1ccc(C=CC(=O)Nc2cc(C)c(OCc3ccccc3)c(C)c2)cc1OC(C)=O
76 to 78 | CC(C)Cn1c(=O)n(C)c(=O)c2cc(Cc3cccc(F)c3)sc21
81.8 to 83.8 | c1cc(C2NCCc3sccc32)ccn1 (centres undefined)
37 to 38 | Clc1cnc(Br)c(Cl)c1
126 to 128 | CCOC(=O)c1cc2c(C)c([N+](=O)[O-])c(C)c(C)c2o1
220 | CCOC(=O)c1c(-c2ccc(O)cc2)nc2ccccn12
145 to 146 | CCCc1c(OC)c(OC)cc2c1C(=O)N(CSc1nnnn1-c1ccccc1)S2(=O)=O
97 to 99 | COc1cc(OC)c(C(=O)N(C)OC)cc1Cl
135 to 137 | C=CCc1cc(-c2nc(C)no2)ccc1O
70 | CC1Cc2c(N)ccc(Cl)c2O1 (centres undefined)
104 | CCCc1nc(NC2CC2)nc(N2CCOCC2)n1

melting point [°C] | SMILES
166 | COC(=O)c1cc(OCc2ccccc2)c2nc(C)n(C)c2c1
203 to 206 | COCCc1nc2c(N)nc3cc(OCc4cccc(N)c4)ccc3c2n1CC(C)(C)O
143 to 145 | CCOC(=O)C1=C(C)NC(C)=C(C(=O)OCCSc2ccccc2)C1C (centres undefined)
98.5 to 102 | O=C(CCn1ccnc1)Cc1c(Cl)cccc1Cl
160 to 162 | CC(=O)N1C(=O)N(N=Cc2cccnc2)Cc2cc(C(F)(C(F)(F)F)C(F)(F)F)ccc21
> 280 | CC1(C)CC2(CCNCC2)C(=O)O1
101 to 102 | O=C(/C=C\c1ccccc1)Nc1ccccc1
103 to 106 | COC(=O)CC(N)c1cc2ccccc2nc1Cl (centres undefined)
112 to 113 | CC1(C)CCC(C)(C)c2cc(C(C(N)=O)C(=O)OCc3ccccc3)ccc21 (centres undefined)
100 to 102 | CC(Cn1ccnc1)Cn1nnc2ccc(Cl)cc2c1=O (centres undefined)
122 | COC(=O)COc1ccc(-c2c(Br)ccc3sc4ccccc4c23)cc1
145 to 146 | CCCCC1(CC)CSC2=CC=CC3=CNCC32C(c2ccccc2)=N1 (centres undefined)
240 | Cc1cc(-c2ccc(Cl)c(C)c2)nc(-c2cccc(-c3ccc(S(N)(=O)=O)s3)c2)n1
204 to 214 | COc1cc(Nc2c(C#N)cnc3cc4cc(OC)c(OCCN5CCOCC5)cc4cc23)c(Cl)cc1F
200 to 202 | CC(C)COc1ccc(-c2nc3cccc(O)c3s2)cc1C#N
50.7 | Nc1cccc(Cc2ccccc2)n1
143 | CCOC(=O)N1CCN(c2cn(C)c3nc(OCc4ccccn4)ccc23)C(=O)C1
206 | CC(=O)Nc1ccccc1C(=O)Nc1cccc2cc(Br)cnc12
105 to 108 | CCOC(=O)c1ccc(CNC(=O)CI)cc1O
247 to 248 | NC(=S)c1cc(F)c2ncc(C(=O)NCc3ccc(Cl)cc3)c(O)c2c1
138 to 139 | Cc1cc(C2=C(c3cccc(F)c3)C(=O)C(C)(C)O2)ccc1S(C)(=O)=O
143 to 144 | CCCCOC(=O)C(NC(=O)OCc1ccccc1)c1ccc(O)cc1 (centres undefined)
68 to 69 | Clc1ccc(-c2nsc3cc(OCCCCBr)ccc23)cc1

melting point [°C] | SMILES
182 to 184 | CC(=O)Nc1ccc(N(c2ccccc2)C2(c3ccc(N(C)C)cc3)OC(=O)c3ccccc32)cc1 (centres undefined)
110 to 115 | CCc1nc2cc(S(N)(=O)=O)c(Cl)cc2n1-c1ccc(CCOC(=O)NS(=O)(=O)c2ccc(C)cc2)cc1
200 to 202 | Cc1cn(-c2cc(C=O)c(N)c(C(F)(F)F)c2)c(C)n1
218 to 220 | N#Cc1ccc(N(Cc2ccc(O)c(Br)c2)n2cnnc2)cc1-c1ccccc1
108 to 110 | O[C@@H]1CN(C2CCCCC2)C[C@@H]1NCc1ccccc1 (relative stereo)
74 to 76 | CCC(=O)N(O)C(C)c1ccco1 (centres undefined)
240 to 242 | CCS(=O)(=O)Nc1cccc(C)c1C(N)c1cccn2c(C)c(C)nc12 (centres undefined)
150 | c1ccc2c(c1)cnc1nnnn12
201 to 203 | O=C1c2ccc(Br)cc2OCC1n1ccnc1 (centres undefined)
> 250 | O=C1Cc2cnccc2N1
38.5 to 39.5 | CCCCCCCCCCCCCCc1ccc(O)c(C(C)=O)c1
64 to 65 | CCc1c(-c2ccccc2)ncc2c(N3CCCCC3)nnc(N3CCCCC3)c12
277 to 286 | Cn1c(=O)c(=O)[nH]c2ccccc21
174 to 175 | C=CCc1c(O)c(=O)[nH]c2ccccc2c1=O
208 to 209 | NC(N)=Nc1nc(-c2ccc(CNC(=O)CS(=O)Cc3ccco3)o2)cs1 (centres undefined)
70 to 75 | O=C(O)CN(CC(=O)O)C(=O)c1cc(OCCCCCCCCCCCCOc2ccccc2)ccc1OCc1ccccc1
216 to 218 | COc1cc2c(cc1F)CCN(Nc1ccncc1)C2
122 to 123 | COc1ccc(-c2sc3ccccc3c2Oc2ccc(OCc3ccccc3)cc2)cc1F
134 | CCOc1nn(C(=O)NS(=O)(=O)Nc2c(C)cccc2C(=O)CC)c(=O)n1C
304 to 305 | COc1ccc2c(c1)c(-c1cc3c(C#N)ccnc3[nH]1)cn2C
190 to 192 | N#Cc1cn(-c2ccccc2)nc1-c1ccc([N+](=O)[O-])o1
130 to 132 | COc1ccc(-c2nc(CN3CCCCC3)nc3cc(OC)c(OC)cc23)cc1OC

SMILES | melting point [°C]
CCCCCn1nc(-c2cccc(C(F)(F)F)c2F)c(=O)c2cccc(OC)c21 | 82 to 84
CCCCCCCCCc1ccccc1O | 80
CCCCCCc1cc2c(s1)-n1c(C)nnc1CN=C2c1ccccc1OC | 128 to 130
N#Cc1nn(-c2c(Cl)cc(C(F)(F)F)cc2Cl)cc1-c1ccoc1Br | 111
CC(C)Cc1ccc(CCc2cc3c(s2)NC(=O)CN=C3c2ccccc2Cl)cc1 | 179 to 181
N#Cc1nn(-c2c(Cl)cc(C(F)(F)F)cc2Cl)c(N)c1-c1ccc(F)cc1 | 222 to 223
